By pIC50 is commonly meant the IC50 on a negative log10 scale, so that one unit is a factor of ten.

The values below come from paper PMC5648829 (Scientific Reports, 2017).

The target of data set [1] is T1, LTA4H (Homo sapiens, UniProt P09960).
T1 sequence (P09960 1-611): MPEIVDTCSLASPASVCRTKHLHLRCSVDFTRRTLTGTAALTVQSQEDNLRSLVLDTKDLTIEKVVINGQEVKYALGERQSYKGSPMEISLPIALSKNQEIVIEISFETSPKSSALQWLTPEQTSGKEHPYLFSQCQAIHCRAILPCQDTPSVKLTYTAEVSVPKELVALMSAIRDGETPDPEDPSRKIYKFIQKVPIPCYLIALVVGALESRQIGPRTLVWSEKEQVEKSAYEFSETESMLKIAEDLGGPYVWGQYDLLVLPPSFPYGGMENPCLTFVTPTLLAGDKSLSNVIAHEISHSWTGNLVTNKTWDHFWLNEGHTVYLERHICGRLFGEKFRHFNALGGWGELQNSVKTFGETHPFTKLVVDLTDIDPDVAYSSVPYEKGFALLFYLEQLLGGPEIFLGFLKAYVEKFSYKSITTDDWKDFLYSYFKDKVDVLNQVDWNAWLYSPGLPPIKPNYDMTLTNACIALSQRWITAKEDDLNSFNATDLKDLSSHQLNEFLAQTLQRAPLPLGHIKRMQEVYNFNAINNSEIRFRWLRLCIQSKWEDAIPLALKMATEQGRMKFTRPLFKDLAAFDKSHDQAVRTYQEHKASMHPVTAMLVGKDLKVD
Description: LTA4H aminopeptidase assay with surrogate substrate Arg-AMC. In kind it is biochemical. Further details: Full-length LTA4H containing a N-terminal (His)6-tag; (His)6-tag (N, cleaved yes); (Gly3-Ser)3 spacer (N, cleaved yes); made in house; host or cells: E. coli BL21 (DE3) star. Here is the method:
(§1) The LTA4H aminopeptidase assays were run using several surrogate substrates: Arg-Rho110-D-Pro (Arg-Rho, Biosyntan GmbH, Germany) or Arg-AMC (Bachem, Switzerland), Pro-AMC (Bachem, Switzerland) and Ala-AMC (Bachem, Switzerland). Assays were performed at RT in 1536-well plates in Tris buffer, pH 7.2 containing NaCl (100 mM), CaCl2 (2 mM), CHAPS (0.5%) and BSA (0.1%). […] The reaction was incubated between 1–2 h (depending on substrate) prior to reading the increase in fluorescence on an EnVision.

For data set [2], the target named is T1, LTA4H. The data set is described as follows: LTA4H aminopeptidase assay with surrogate substrate Pro-AMC. The format is biochemical. More on the design: Full-length LTA4H containing a N-terminal (His)6-tag; (His)6-tag (N, cleaved yes); (Gly3-Ser)3 spacer (N, cleaved yes); made in house; host or cells: E. coli BL21 (DE3) star. Here is the method:
as §1

Data set [3] addresses T1, LTA4H. Description: LTA4H aminopeptidase assay with surrogate substrate Ala-AMC. As to conditions: for Effect on Ala-AMC hydrolysis: Table 1, whether compound increased or inhibited hydrolysis of Ala-AMC by the enzyme; for pIC50: Table 2. In kind it is biochemical. More on the design: Full-length LTA4H containing a N-terminal (His)6-tag; (His)6-tag (N, cleaved yes); (Gly3-Ser)3 spacer (N, cleaved yes); made in house; host or cells: E. coli BL21 (DE3) star. Here is the method:
as §1

Data set [4] concerns the target T1, LTA4H. The data set is described as follows: PGP peptidolysis assay by LC-MS/MS. In kind it is biochemical. Further details: Full-length LTA4H containing a N-terminal (His)6-tag; (His)6-tag (N, cleaved yes); (Gly3-Ser)3 spacer (N, cleaved yes); made in house; host or cells: E. coli BL21 (DE3) star. Here is the method: The aminopeptidase activity of LTA4H was assessed with H-PGP-OH (Bachem, Switzerland) as substrate. Assays were performed at RT in black 384-well low volume plates (Greiner) and analyzed by LC-MS/MS. All compounds were tested as 8 point dose response curves in triplicates included on every plate. 3 µl of compound diluted in assay buffer (Tris (50 mM), NaCl (150 mM), CaCl2 (10 mM) at pH7.5) was transferred to the plate followed by 3 µl of enzyme solution (20 nM LTA4H in assay buffer). The enzyme compound mixture was incubated at room temperature for 15 min prior to the addition of 6 µl substrate solution (800 µM PGP in assay buffer). Upon addition of the substrate, the plate was placed on a shaker at 25 °C for 40 min. The reaction was stopped by addition of 12 µl formic acid (0.2% v/v). The final concentration of the enzyme in the assay was 5 nM, the PGP 400 µM and the compound concentration range was from 50000 nM to 3.2 nM. For peptide quantification, an HPLC instrument from Agilent Series 1290 (binary high pressure gradient system) with detectors UV, fluorescence and mass (single Quad) detectors was used. HPLC was done using an Atlantis T3 column (C18 100 × 2.1mm, […], 100 Å) with A: water (MQ) + 0.1% formic acid and B: acetonitrile + 0.1% formic acid: 0–0.3 min 0% buffer B, then increased to 100% buffer B at 0.31–0.65 min and again decreased to 0% buffer B at 0.66–0.70 min. Flow was set to 1.5 ml/min with start gradient pressure of 400 bar.

Data set [5] has as its system human neutrophils. The data set is described as follows: Human neutrophil chemotaxis assay. In kind it is cell-based. On the procedure:
Purified human neutrophils were labeled with calcein-AM (Fluka, Buchs, Switzerland). Test compounds (PGP, Ac-PGP, RTR, and Ac-RTR) or IL-8 (Sigma) as positive chemoattractant control were diluted in RPMI containing BSA (0.1%) and added at graded concentrations into the wells of a 96-well ChemoTX plate (3.2 mm diameter, 5 µm pore size; NeuroProbe, Gaithersburg, MD). Labeled cells (50,000 per well) were added onto the filters above the wells that received the test compounds. Plates were incubated for 90 min at 37 °C. The filters were removed and fluorescence in the receiving wells was measured using a SpectraMAX Gemini EM instrument (Molecular Devices, Sunnyvale, CA; λex = 485 nm; λem = 538 nm). The chemotactic index was measured as the ratio of fluorescence in the test wells and in control (buffer only) wells.

The test system of data set [6] is human neutrophils. Description: Human neutrophil shape change assay. In kind it is cell-based. As to conditions: isolated human neutrophils. Here is the method:
Neutrophils were purified by Ficoll density gradient centrifugation from human blood and incubated with graded concentrations of PGP, Ac-PGP or the known neutrophil chemoattractant GROα in assay buffer containing BSA (0.1%) in PBS for 10 min at 37 °C, 5% CO2 and 90% humidity. Cells were then fixed and shape change analyzed by flow cytometry.

A short description of data set [7]: PGP degradation assay in BALF ex-vivo (LC-MS/MS). In kind it is in vitro ADME, mouse. To be noted: BALF of wt and LTA4H-KO mice, 24 h at 37 °C, compared with PBS. On the procedure: 200 µl of BALF were spiked with PGP and Ac-PGP at the final concentration of 10 nM. […] After incubation, samples were filtered (Amicon Ultra-0.5, Membrane Ultracel-30, PMNL 30 kD) by centrifugation (3 min at 10,000 × g). Filtered samples were transferred to vials for liquid chromatography tandem mass spectrometry (LC-MS/MS) analysis. The LC system consisted of an Acquity UPLC I-Class interfaced with a Xevo-TQS triple quadruple MS (Waters). […] PGP was monitored with MRM m/z transitions of 270.1 > 173.1 (quantifier) and 270.1 > 70.1 and 270.1 > 116.1 (qualifiers). Ac-PGP was monitored with m/z transitions of 312.2 > 112.1 (quantifier) and 312.2 > 116.1 and 312.2 > 140.1 (qualifiers).

[8] abbreviates: Table 1, average of minimum two biological replicates, read-out: IC50 Arg-AMC.
Where [9] appears, read: Table 1, read-out: IC50 Pro-AMC.
Setting [10] is: Table 2, read-out: IC50 Arg-AMC.
[11] abbreviates: Table 2, read-out: IC50 Pro-AMC.

pIC50: −log10 of the molar value. Several values for one entry are separate records, joined by “and”; a condition that tells them apart may be missing. Equal entries are not always repeated. Where a SMILES comes first, the peptide text is derived from it.

Regarding `c1ccc(Oc2ccc(-c3cc[nH]c3)cc2)cc1` [Compound 9, 3-(4-phenoxyphenyl)-1H-pyrrole], the pIC50 was 6.32 on LTA4H [1] (setting [8]); 6.33 on LTA4H [2] (setting [9]); 7.46 on LTA4H [4] (Table 1, read-out: IC50 PGP). The “Effect on Ala-AMC hydrolysis” value on LTA4H [3] is recorded as “increase”. The “Ratio IC50 PGP/Arg-AMC” value at LTA4H [4] (Table 1) came out at 0.07.

In the case of IL-8: positive chemoattractant control, the neutrophil chemotaxis result with human neutrophils [5] (concentration as low as 10 nM) was “substantial chemotaxis”.

In the case of `Oc1cc(-c2ccc(Oc3ccccc3)cc2)n[nH]1` [Compound 8, 3-(4-phenoxyphenyl)-1H-pyrazol-5-ol], the pIC50 is 5.89 at LTA4H [1] (setting [8]); 5.87 at LTA4H [2] (setting [9]); 5.73 on LTA4H [4] (Table 1, read-out: IC50 PGP). The “Effect on Ala-AMC hydrolysis” value at LTA4H [3] is given as “increase”. Also, the “Ratio IC50 PGP/Arg-AMC” value on LTA4H [4] (Table 1) amounted to 1.44.

For `Nc1nc(-c2ccc(Cc3ccccc3)cc2)cs1` [ARM-1, 4-(4-benzylphenyl) thiazol-2-amine, reference compound], the pIC50 at LTA4H [1] (setting [8]) was 6.01; at LTA4H [2] (setting [9]) it was 5.99; at LTA4H [4] (Table 1, read-out: IC50 PGP), 6.41. Besides, the “Effect on Ala-AMC hydrolysis” value on LTA4H [3] is recorded as “increase”. In addition, the “Ratio IC50 PGP/Arg-AMC” value at LTA4H [4] (Table 1) worked out at 0.40.

With `Cn1cnc(-c2ccc(Oc3ccccc3)cc2)c1` [Compound 7, 1-methyl-4-(4-phenoxyphenyl)-1H-imidazole], the pIC50 on LTA4H [1] (setting [8]) is 5.54; at LTA4H [2] (setting [9]) it was 5.77; on LTA4H [4] (Table 1, read-out: IC50 PGP), 5.85. The “Effect on Ala-AMC hydrolysis” value on LTA4H [3] is given as “increase”. For the same compound, on LTA4H [4] (Table 1), the “Ratio IC50 PGP/Arg-AMC” value was 0.49.

Regarding arginine-threonine-arginine [RTR], the neutrophil chemotaxis result in the data set with human neutrophils [5] (graded concentrations up to mM range, 90 min at 37 °C) was “entirely negative”.

Take `OCc1ccc(Oc2nc3ccccc3s2)cc1` [Compound 14]: the pIC50 on LTA4H [1] (setting [10]) is 6.65; on LTA4H [2] (setting [11]) it was 6.82; on LTA4H [3], under 4.60; on LTA4H [4] (Table 2, read-out: IC50 PGP), 7.12. Besides, the “Ratio IC50 PGP/Arg-AMC” value on LTA4H [4] (Table 2, fold selectivity) was determined as 0.34.

On to `c1ccc(Cc2ccc(-c3c[nH]cn3)cc2)cc1` [Compound 2, 4-(4-benzylphenyl)-1H-imidazole], for which the pIC50 on LTA4H [1] (setting [8]) is 6.57; at LTA4H [2] (setting [9]), 6.55; on LTA4H [4] (Table 1, read-out: IC50 PGP) it was 6.42. Besides, the “Effect on Ala-AMC hydrolysis” value on LTA4H [3] was “increase”. Further, the “Ratio IC50 PGP/Arg-AMC” value at LTA4H [4] (Table 1) is 1.4.

Consider `COc1ccc(Cc2ccccc2)cc1` [4-MDM, 4-Methoxydiphenylmethane, reference compound], for which the pIC50 at LTA4H [1] (setting [8]) was 4.99; on LTA4H [2] (setting [9]), 4.47; on LTA4H [4] (Table 1, read-out: IC50 PGP), 5.37. In addition, the “Effect on Ala-AMC hydrolysis” value at LTA4H [3] is listed as “increase”. Besides, the “Ratio IC50 PGP/Arg-AMC” value on LTA4H [4] (Table 1) turned out to be 0.42.

Consider `O=Cc1ncc(Oc2nc3ccccc3s2)cn1` [Compound 16], for which the pIC50 was 5.59 at LTA4H [1] (setting [10]); 4.80 at LTA4H [2] (setting [11]); under 4.60 at LTA4H [3]; 4.95 at LTA4H [4] (Table 2, read-out: IC50 PGP).

With “GROα: known chemokine and neutrophil chemoattractant”, the “ED50 neutrophil shape change” value in the data set on human neutrophils [6] was “approximately 0.2 nM”.

Turning to `O=Cc1ccc(Oc2nc3ncccc3s2)cn1` [Compound 17, 5-(thiazolo[4,5-b]pyridin-2-yloxy)picolinaldehyde], the pIC50 on LTA4H [1] (setting [10]) is 7.09; on LTA4H [2] (setting [11]) it was 6.25; on LTA4H [3], 6.26; on LTA4H [4] (Table 2, read-out: IC50 PGP) it was 5.95. At LTA4H [4] (Table 2, fold selectivity), the “Ratio IC50 PGP/Arg-AMC” value was 14 and 13.5.

Consider `CC(=O)N1CCC[C@H]1C(=O)NCC(=O)N1CCC[C@H]1C(=O)O` [Ac-PGP, N-acetly-Pro-Gly-Pro] (Ac-Pro-Gly-Pro-OH), for which the “Ac-PGP stability in exudates” value in data set [7] was “remained as stable over 24 h at 37 °C as in PBS”.

Turning to `c1ccc(Oc2ccc(-c3c[nH]cn3)cc2)cc1` [Compound 6, 5-(4-phenoxyphenyl)-1H-imidazole], the pIC50 against LTA4H [1] was 7.19; on LTA4H [2], 7.11; at LTA4H [4] it was 7.35.
